Data from US7229762B2, “Proteomic screening for redox state dependent protein—protein interactions” (Duke University Medical Center, priority 2003, dated 2007).
Values belong to the compound of their own block, whether it stands above or below them.

What was measured:
[1] = tested on: ASM/caspase-3 interaction in nNOS-expressing HEK cells; assay: Caspase-3 IP from nNOS-expressing HEK cells, ASM isoforms; format: cell-based, Human; conditions: L-NMMA 3 mM
Protocol: (§1) Thirty million cells were lysed by gentle homogenization in 1 ml IP buffer (10 mM NaPi, 100 mM NaCl, 1 mM EDTA, pH 7.9, with protease inhibitor cocktail). The supernatant obtained by centrifugation at 20,000 g for 10 min was used for immunoprecipitation. Caspase-3 immunoprecipitates (2.5 μg anti-caspase-3 monoclonal antibody, Transduction Laboratories) were washed, separated on 10% SDS-PAGE, and blotted with ASM antisera (Santa Cruz Biotechnology); 5% of the sample was blotted for caspase-3.
Amounts of ASM isoforms (47, 57, 75 kDa) in caspase-3 immunoprecipitates (IP) from wild type (WT) vs. nNOS-expressing HEK cells were normalized with respect to the amounts of caspase-3 in the IPs (FIG. 2, bar graphs); IPs were performed in the presence and absence of the NOS inhibitor, LNMMA (3 mM). nNOS vs. WT (single asterisk, P<0.01) and nNOS vs. nNOS+LNMMA (double asterisk, p<0.05). A and B, n=7–14; C, n=3–5.
Bulotta et al., 2001; De Nadal et al., 2000). […] To define further the NO requirement for this interaction, caspase-3 was immunoprecipitated from wild-type HEK cells and from HEK cells stably transfected with nNOS (Bredt et al., 1992), in the presence and absence of the NOS inhibitor L-NMMA. Little or no ASM was pulled down in precipitates from wild-type HEK cells, whereas ASM was readily detected in the precipitates from nNOS-expressing cells (FIG. 2). […]

[2] = biological target: T1, eNOS/caspase-3 interaction in eNOS-expressing HEK cells (Bos taurus, UniProt P29473); assay: Caspase-3 IP from eNOS-expressing HEK cells, amounts of eNOS; format: cell-based, Human; conditions: L-NMMA 3 mM with L-arginine 1 mM/Ca2+ 200 μM
T1 construct: expressed in transfected cells; host or cells: HEK-293 expressing eNOS
Protocol: HEK cell lysates from wild type (WT), nNOS- and eNOS-expressing cells were immunoprecipitated with caspase-3 monoclonal antibodies and blotted (IB) for nNOS, eNOS, and caspase-3, respectively. eNOS, nNOS and caspase-3 in whole cell lysates (Lysate) and in IPs from those lysates (7–20% SDS-PAGE) are shown. Data are representative of 5 similar experiments. eNOS and nNOS were not detectable in control IPs (not shown).
eNOS-expressing HEK cells were treated with L-arginine (1 mM)/Ca^2+ (200 μM) (to activate NOS) in the presence or absence of L-NMMA (3 mM) (to inhibit NOS activation). Amounts of eNOS were quantified from scanned Western blots (7–20% SDS-PAGE) and normalized with respect to amounts of caspase in the IP (bar graph), (n=3).
To probe further the physiological relevance of NO-dependent protein-protein interactions of NOS, the effects of NOS activity on binding of caspase-3 were assessed. […] Thus, NOS reversibly regulates its own binding to capase-3 through NO production.

[3] = tested on: caspase-3 interactions with ASM, IRG, PGM, iNOS
Protocol: For this purpose, protein-protein interactions were determined in a yeast two-hybrid system by the method described in Uetz, P., et al., Nature 403, 623–627 (2000) and Ito, T., et al., PNAS, 97, 1143–1147 (2000). The baits were all known proteins involved in apoptotic cascades. The preys were a library of macrophage genes (mRNA) expressed in response to cytokines that induce apoptosis. Mating pairs or transfectants were exposed to continuous nitric oxide presence at levels and flux rates mimicking those which are generated in macrophages, over 18 hours (the time course, over which apoptosis occurs in these cells). Room air was used in the determinations to mimic the cell condition at first and subsequently low pO2 (about 5 mm Hg) was used to improve specificity and increase yield. New partners and/or inhibition of partners that were otherwise present, were sought.

[4] = tested on: Yeast (Δyhb1); format: cell-based, Saccharomyces cerevisiae; conditions: growth monitored by absorbance at 600 nm
Protocol: The YHB1 gene was deleted from yeast strain CG-1945 and the absence of NO consumption activity was verified (Liu et al., 2000). Yeast two-hybrid screening was then performed in the CG-1945-Ayhbl host. […]
Yeast (Δyhb1) were transformed with Gal4 BD-caspase-3 plasmid (bait) and a cDNA library (Gal4 AD prey plasmids) derived from activated (NO generating) macrophages. […] DETA-NO at less than 300 μM generates NO without inhibiting yeast growth (monitored by absorbance at 600 nm). Steady state NO concentrations are maintained at ˜100 nM–1 μM range for several days as measured with an NO electrode (not shown).
(§2) To assess the possibility of NO-dependent regulation of protein-protein interactions in a cellular context, a modified yeast two-hybrid screening methodology was developed. […] It was also necessary to establish a concentration range of DETA-NO over which physiological amounts of NO could be generated in these assays without impairing yeast growth (FIG. 1A) (100 μM DETA-NO produces steady state concentrations of ˜300 nM NO in yeast culture medium, as determined using an NO electrode)

[5] = format: physicochemical
Protocol: (§3) Yeast (Δyhb1) were transformed with Gal4 BD-caspase-3 plasmid (bait) and a cDNA library (Gal4 AD prey plasmids) derived from activated (NO generating) macrophages. Screening was performed as described in the methods below. DETA-NO at less than 300 μM generates NO without inhibiting yeast growth (monitored by absorbance at 600 nm). Steady state NO concentrations are maintained at ˜100 nM–1 μM range for several days as measured with an NO electrode (not shown).
as §2, with “developed. The first step was to delete the yeast flavohemoglobin gene (Liu et al., 2000), which consumes NO very efficiently and thus obfuscates NO signaling.” for “developed.”
Purified caspase-3 was incubated in the presence or absence 20 μM DETA-NO for 60 min (30 nM steady state NO), followed by incubation with ASM at 37° C. for 2 hrs, and IP with caspase-3 antibody. […] S-nitrosylation of caspase-3 by NO was separately verified by photolysis-chemiluminesence (Mannick et al., 1999). The interaction of caspase-3 with ASM was measured as ASM activity in caspase-3 IP's (pH 5.0). Little or no ASM activity was present in IP's with caspase-3 antibody of either caspase-3 or ASM in isolation.
To determine the relevant target(s) of NO, ASM/caspase-3 co-precipitations were carried out following NO treatment of each partner alone. Using an ASM activity assay, the amounts of ASM that could be precipitated with a procaspase-3 antibody was assessed from co-incubates (2 hours at 37° C.) of ASM (20 pmol) and caspase-3 in limiting amounts (2.5 pmol). […]

[6] = biological target: T2, caspase-3 interaction with iNOS / ASM (Homo sapiens, UniProt P42574); assay: Modified yeast two-hybrid, NO-dependent growth of iNOS/caspase-3 and ASM/caspase-3 clones; format: cell-based; conditions: 72 hrs, triple-deficient medium
T2 construct: expressed in transfected cells; host or cells: Saccharomyces cerevisiae CG-1945 Δyhb1
T2 sequence (P42574 1-277): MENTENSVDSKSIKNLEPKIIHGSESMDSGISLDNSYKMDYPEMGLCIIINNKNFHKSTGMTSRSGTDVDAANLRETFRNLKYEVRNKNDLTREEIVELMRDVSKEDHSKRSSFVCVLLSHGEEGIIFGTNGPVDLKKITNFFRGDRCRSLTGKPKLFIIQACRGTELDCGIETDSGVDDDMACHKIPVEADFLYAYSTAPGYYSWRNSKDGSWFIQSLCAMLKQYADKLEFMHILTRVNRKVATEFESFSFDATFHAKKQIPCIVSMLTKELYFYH
Protocol: as §3
Auxotrophic selection was carried out on agar plates (15 cm in diameter) enriched in 50 mM phosphate buffer (pH 7.2; His-Trp-Leu (triple)-deficient buffered medium (TDBM)). […] Prey plasmids were isolated from positive yeast clones and then re-introduced into the bait strain to confirm bait-prey interactions. Method 2: After cells were seeded on 1.5% agar they were covered with 3% low melting point agar, which in turn was layered with culture medium. NO donors (e.g. DETA-NO; 300 μM final concentration) were added to the liquid layer every 24 hours. Colonies are grown for 4 days as described in ref 9. Method 3:
Auxotrophic selection was carried out in TDBM. Transformation with the cDNA library was followed by overnight growth in medium deficient in tryptophan and leucine. Transformants were then grown for 3 days in His-deficient medium supplemented with DETA-NO (typically 200 μM final concentration). […]

[7] = biological target: T3, caspase-3/ASM interaction in HEK-293 cells (Homo sapiens, UniProt P42574); assay: Caspase-3 immunoprecipitation, ASM blot, HEK-293 cells exposed to DETA-NO; format: cell-based; conditions: 200 μM DETA-NO
T3 construct: endogenous in cells; host or cells: HEK-293
T3 sequence (P42574 29-277): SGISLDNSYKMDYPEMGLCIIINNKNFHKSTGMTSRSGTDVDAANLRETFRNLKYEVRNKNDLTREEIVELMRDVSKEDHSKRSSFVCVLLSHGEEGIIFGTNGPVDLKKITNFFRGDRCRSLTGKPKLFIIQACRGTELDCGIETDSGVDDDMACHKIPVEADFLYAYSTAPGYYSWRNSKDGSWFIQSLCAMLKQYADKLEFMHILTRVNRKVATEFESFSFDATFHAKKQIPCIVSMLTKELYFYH
T3 sequence (P17405 47-631 partner): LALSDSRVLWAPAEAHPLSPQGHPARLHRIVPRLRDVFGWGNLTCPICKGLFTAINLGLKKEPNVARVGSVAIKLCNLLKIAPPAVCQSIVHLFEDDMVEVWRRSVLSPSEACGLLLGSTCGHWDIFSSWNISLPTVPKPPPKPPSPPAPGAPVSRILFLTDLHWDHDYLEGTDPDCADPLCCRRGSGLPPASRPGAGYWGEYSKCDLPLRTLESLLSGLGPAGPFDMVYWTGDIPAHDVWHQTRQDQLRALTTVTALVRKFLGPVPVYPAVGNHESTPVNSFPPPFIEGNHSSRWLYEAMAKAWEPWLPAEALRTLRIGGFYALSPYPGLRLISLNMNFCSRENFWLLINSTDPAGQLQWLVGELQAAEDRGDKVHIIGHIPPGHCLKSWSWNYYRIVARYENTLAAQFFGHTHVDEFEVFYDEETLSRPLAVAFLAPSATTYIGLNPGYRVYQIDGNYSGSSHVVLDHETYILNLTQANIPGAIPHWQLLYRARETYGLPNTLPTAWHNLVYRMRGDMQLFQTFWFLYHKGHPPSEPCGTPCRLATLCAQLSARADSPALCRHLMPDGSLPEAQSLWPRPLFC
Protocol: as §1
Bulotta et al., 2001; De Nadal et al., 2000). […] To define further the NO requirement for this interaction, caspase-3 was immunoprecipitated from wild-type HEK cells and from HEK cells stably transfected with nNOS (Bredt et al., 1992), in the presence and absence of the NOS inhibitor L-NMMA. Little or no ASM was pulled down in precipitates from wild-type HEK cells, whereas ASM was readily detected in the precipitates from nNOS-expressing cells (FIG. 2). Moreover, ASM/caspase-3 interactions were observed not only between the 57 kD mature form of ASM, but also with the ASM proform (75 kD) and a smaller processed form (47 kD), which may be alternatively regulated (Ferlinz et al., 1994; Hurwitz et al., 1994).

- effect on eNOS interaction with caspase-3 after NOS activation [2]: almost completely reversed this effect
SMILES: CNC(=N)NCCC[C@H](N)C(=O)O [L-NMMA]
- effect on interaction between ASM isoforms and caspase-3 [1]: significantly reduced the interaction

- interaction dependent on hydrogen peroxide in the 4 clones ([3]; added repeatedly or generated continuously with glucose oxidase): none was found
SMILES: OO [hydrogen peroxide]
- effect of presence of hydrogen peroxide on determined interactions [3]: did not produce or modify the majority of determined interactions

SMILES: NCCN(CCN)/[N+]([O-])=N/O [DETA-NO, diethylenetriamine-NO]
- DETA-NO concentration that generates NO without inhibiting yeast growth [4]: less than 300 μM
- half-life [5]: ~18 h
- steady state / maximum NO concentration ([5]; 20 μM DETA-NO, 60 min): 30 nM
- steady state concentration of NO ([5]; 100 μM DETA-NO, yeast culture medium, NO electrode): ~300 nM
- concentration that optimally induced in yeast the interactions of caspase-3 with ASM and iNOS [6]: 200 µM
- co-precipitation of ASM with caspase-3 [7]: immunoprecipitation of caspase-3 brought down the 57 kD active form of ASM
